Results: patent US20240391928A1, “COMPOSITIONS FOR THE TREATMENT OF FOOD AND CHEMICAL ADDICTION AND METHODS OF MAKING AND USING SAME” (Duke University, priority 2021, published 2024)

Tests used:
hGHSR1a^A204E [1] = target: T1, hGHSR1a^A204E (Homo sapiens, UniProt Q92847, A204E)
Target sequence in this assay (Q92847 whole entry A204E): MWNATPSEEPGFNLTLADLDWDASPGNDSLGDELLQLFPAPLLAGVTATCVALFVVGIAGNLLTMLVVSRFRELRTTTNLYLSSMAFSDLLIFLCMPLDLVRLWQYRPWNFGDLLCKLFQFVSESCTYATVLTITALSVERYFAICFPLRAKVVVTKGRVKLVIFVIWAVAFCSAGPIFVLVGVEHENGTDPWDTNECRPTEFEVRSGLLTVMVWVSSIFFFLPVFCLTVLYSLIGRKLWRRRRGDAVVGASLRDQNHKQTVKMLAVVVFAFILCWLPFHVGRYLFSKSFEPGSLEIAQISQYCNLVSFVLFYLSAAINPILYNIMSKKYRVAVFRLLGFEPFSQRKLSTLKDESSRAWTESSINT
Target sequence in this assay (P32121 whole entry partner): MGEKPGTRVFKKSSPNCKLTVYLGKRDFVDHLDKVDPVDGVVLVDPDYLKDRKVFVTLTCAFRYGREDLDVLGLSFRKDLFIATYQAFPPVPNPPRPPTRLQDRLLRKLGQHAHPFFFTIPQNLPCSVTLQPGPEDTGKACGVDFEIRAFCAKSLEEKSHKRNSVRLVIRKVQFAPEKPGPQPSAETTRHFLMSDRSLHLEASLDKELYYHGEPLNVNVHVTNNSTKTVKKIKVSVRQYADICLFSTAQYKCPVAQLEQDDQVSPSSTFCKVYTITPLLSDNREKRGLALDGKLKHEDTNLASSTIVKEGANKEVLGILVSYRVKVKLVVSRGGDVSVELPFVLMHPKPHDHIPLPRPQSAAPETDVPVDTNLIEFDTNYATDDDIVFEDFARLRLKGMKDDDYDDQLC
Procedure: β-arr2 recruitment: In agonist and antagonist assays of NanoBiT-based β-arr2 recruitment, hGHSR1a^WT-Lg^BiT and ^SmBiT-β^WT were transiently co-transfected at a 1:1 ratio (250 μg each) into monolayers of HEK293/T cells on 6-well plates along with 2 μg of pcDNA3.1. For assays employing the Ala204Glu variant, hGHSR1a^A204E-Lg^BiT was transfected at 2×hGHSR1a^WT-Lg^BiT, as performed for iCa^2+ assays with hGHSR1a^A204E described above. For GHSR1a-β-arr2 saturation assays, a fixed amount of hGHSR1a^WT-Lg^BiT cDNA (250 μg) was transfected with 0, 62.5 (1:0.25), 125 (1:0.5), 250 (1:1), 500 (1:2), or 1000 (1:4) μg of ^SmBiTβ-arr^WT. The morning after transfection, media was exchanged and after 4-6 hours, cells were then plated on white 96-well, clear-bottomed assay plates at a density of 45,000 cells/well in opti-MEM supplemented with 2% FBS and antibiotic/antimycotic. The following morning, opti-MEM was removed and cells were incubated with 70-80 μL HBSS supplemented with 20 mM HEPES (pH 7.4) for 4 hours. Cells were then treated with 10 μL of coelenterazine H (5 μM final) for 15-20 minutes at room temperature. Cells were then stimulated with 10 μL of test compounds and 2 minutes later, luminescence was measured over 5 minutes, which encompassed the peak β-arr2 recruitment signal.

GHSR1a^N305A = target: T2, GHSR1a^N305A (Homo sapiens, UniProt Q92847, N305A); test: TRUPATH Gαq dissociation at N305A mutant; assay type: cell-based
T2 construct: expressed in transfected cells; host or cells: HEK293/T

C57BL/6J mice = test: Cocaine-induced behavioral sensitization; assay type: in vivo, mouse; settings: N8279 5 mg/kg IP; cocaine 20 mg/kg
Procedure: Next, cocaine-induced behavioral sensitization was assessed in male and female C57BL/6J mice following subchronic (8-day) administration of the vehicle or N8279 (5 mg/kg, IP) in the home-cage. Subsequently, mice were given the same treatments as described above, followed with an injection (IP) of vehicle or cocaine (20 mg/kg) in the open-field once per day for 5 days (FIG. 4D). A […] hiatus (washout) was imposed and behavioral sensitization was assessed the next day by giving (IP) vehicle or cocaine (challenge). […] By comparison, motor activities were stimulated acutely (day 1) to similar extents in the vehicle+cocaine and N8279+cocaine mice (FIG. 4E). […] Moreover, at challenge (day 11), locomotor activity was augmented relative to day 1 in the vehicle+cocaine mice, whereby no change in activity was evident in the N8279+cocaine mice.
Cocaine Sensitization. Male and female C57BL6/J mice (Jackson Labs, Bar Harbor, ME) were administered (IP) vehicle or N8279 (5 mg/kg) subchronically for 8 consecutive days (once/day) (FIG. 4D). Subsequently, mice were placed into the open-field (Accuscan Instruments, Columbus, OH) for 30 min, they were removed, injected (IP) with vehicle or N8279, returned to the open field for 30 min, then the mice were given (IP) vehicle or cocaine (20 mg/kg) and returned to the open-field for 120 minutes (FIG. 4D). […]

hGHSR1a^D99A = target: T3, hGHSR1a^D99A (Homo sapiens, UniProt Q92847, D99A); test: Gαq dissociation (TRUPATH) and iCa2+ at D99A mutant; assay type: cell-based; settings: surface expression reduced markedly
T3 construct: expressed in transfected cells; host or cells: HEK293/T, transient
T3 sequence (Q92847 whole entry D99A): as the sequence (Q92847 whole entry A204E) above, with D99A, E204A counted along it
Procedure: (§1) For experiments with WT and Gt KO HEK293/S cells, […] of hGHSR1a^WT, 10 μg of miAEQ, and 2.5 μg of pcDNA3.1 was transiently transfected into 10 cm dishes and incubated overnight. […] Twenty-four hours later, experiments proceeded in accordance with the procedures described above. To control for any possible kinetic differences in genetically modified cell lines or GHSR1a variants, the average ligand-induced response over 10 seconds was calculated, then normalized by dividing the L-miAeq by the L-miAeq plus the Lysis-miAeq and normalized to the appropriate control/reference condition.

[2] = target: T4, hGHSR1a^WT-RLucII / mVenus-β-arr2 (Homo sapiens, UniProt Q92847); test: BRET β-arr2 recruitment; assay type: cell-based
T4 construct: expressed in transfected cells; host or cells: HEK293/T, transient
T4 sequence (Q92847 whole entry): as the sequence (Q92847 whole entry A204E) above, with E204A counted along it
T4 sequence (P32121 whole entry partner): as the sequence (P32121 whole entry partner) above
Procedure: The morning after transfection, media was exchanged and after 4-6 hours, cells were then plated on white 96-well, clear-bottomed assay plates at a density of 45,000 cells/well in opti-MEM supplemented with 2% FBS and antibiotic/antimycotic. The following morning, opti-MEM was removed and cells were incubated with 70-80 μL HBSS supplemented with 20 mM HEPES (pH 7.4) for 4 hours. Cells were then treated with 10 μL of coelenterazine H (5 μM final) for 5-10 minutes at room temperature.

[3] = Pharmacokinetic analysis in C57BL/6 mice
Procedure: Pharmacokinetic Analysis. Male C57BL/6 mice were used for pharmacokinetic studies and were purchased from Charles River Laboratories. DAT KO mice were backcrossed for >10 generations onto a C57BL/6J (Jackson Laboratory, Bar Harbor, ME) genetic background. Mice were bred and maintained on a standard 12:12 hour light:dark cycle, socially housed, and supplied with standard laboratory chow and water ad libitum, except during testing. […] Plasma, brain and liver samples were collected over 24 hours. […] The mean concentration from 3 animals at each time-point was used in the pharmacokinetic (PK) analysis. PK parameters were calculated with Phoenix WinNonlin Software (Ver. 8.0, Certara).

hGHSR1a^A204E [4] = target: T1, hGHSR1a^A204E; settings: C/R curve did not saturate
Target sequence in this assay (Q92847 whole entry A204E): as the sequence (Q92847 whole entry A204E) above
Procedure: BRET-based Gαq Dissociation & β-arr2 Recruitment Assays. TRUPATH Gα dissociation: Gαq/i1/i2/OA/12/13/sS^RLuc8 and Gγ8^GFP2 or Gγ9^GFP2 were transiently co-transfected with human 3×HA-GHSR1a^WT and untagged Gβ3 at a 1:1:1:1 ratio (100 μg each) into monolayers of HEK293/T cells along with 1.6 μg pcDNA3.1. The next morning, media (DMEM supplemented with 10% FBS and antibiotic/antimycotic) was exchanged and after 4-6 hours, cells were plated on white 96-well, clear-bottomed assay plates at a density of 40,000-50,000 cells/well in opti-MEM supplemented with 2% FBS and antibiotic/antimycotic. The next morning, opti-MEM was removed and cells were incubated with 80 μL HBSS supplemented with 20 mM HEPES (pH 7.4) for 4 hours. Cells were then treated with 10 μL of the luminescent substrate, coelenterazine 400a (5 μM final), for 5 minutes at room temperature prior to the addition of 10 μL of test compound. Five minutes after ligand application, luminescence was measured by a Mithras 940 plate reader over 30 minutes and the maximal response was utilized for generating all C/R curves.

hGHSR1a^WT = hGHSR1a^WT (Homo sapiens, UniProt Q92847); test: Gαq-dependent intracellular Ca2+ mobilization (iCa2+, miAeq); assay type: cell-based; design: HEK293/T (transient); HEK293S Gαq knockout (transient, NanoBiT Gαq)
Sequence of hGHSR1a^WT (Q92847 whole entry): as the sequence (Q92847 whole entry A204E) above, with E204A counted along it
Procedure: Gαq-Dependent Intracellular Ca^2+ Mobilization. […] Cells were split into and seeded into 10 cm dishes without antibiotic selection and grown to confluency overnight. The next morning, cells were serum starved in 10 mL of clear opti-MEM (supplemented with L-glutamine and HEPES; Gibco, Waltham, MA) for 3-4 hours in a 37° C. incubator with 5% CO2. Then, 25 μL of coelenterazine H (NanoLight Technology, Pinetop, AZ) was added to each 10 mL dish and incubated for another 1-2 hours. For antagonist assays, test compounds were either added directly to the media in 10 cm dishes, or cells were collected by gentle washing/trituration and plated onto white, clear-bottomed 96-well plates for 30 minutes—1 hour. Once the coelenterazine H (or antagonist) incubation was complete, cells were harvested from the 10 cm dish by gentle washing/trituration and collected in a 15 mL conical tube. Cell suspensions were then immediately subjected to assay by injecting cells onto a white, clear-bottomed 96-well plate containing 2× test compounds. Luminescence was read without delay and for 10 seconds per well. To control for cell number variability, cells were lysed in 2× lysis buffer (100 mM CaCl2+0.2% Triton-X) immediately following the assay. The max ligand-induced response (Ca^2+ mobilization: net-miAeq) over 10 seconds was normalized by dividing the ligand-induced luminescence counts (L-miAeq) by the ligand-induced luminescence counts (L-MiAeq) plus the luminescence measured upon cell lysis (Lysis-miAeq). Relative, lysis-normalized data were then normalized to the appropriate control/reference condition.
as §1

T2 sequence (Q92847 whole entry N305A): as the sequence (Q92847 whole entry A204E) above, with E204A, N305A counted along it

SMILES: COc1ccc(C(=O)c2c(C(=O)NCCCN(C)C)oc3ccc(Cl)cc3c2=O)cc1OC [Example N8279, 6-Chloro-3-(3,4-dimethoxybenzoyl)-N-(3-(dimethylamino)propyl)-4-oxo-4H-chromene-2-carboxamide]
- Emax (hGHSR1a^A204E [1]): ~35%
- Gαq dissociation at GHSR1a^N305A in words (GHSR1a^N305A): reduced dramatically
- cocaine-induced behavioral sensitization in words (C57BL/6J mice): delayed the appearance of sensitization across days and abrogated the expression of sensitization following washout
- signaling at GHSR1a^D99A in words (hGHSR1a^D99A): abolished
- BRET β-arr2 recruitment, fold less potent than ghrelin [2]: ~100 fold
- brain:plasma ratio ([3]; IP): 0.6-0.9
- AUCextrap ([3]; IP 5 mg/kg, brain): 7.1%
- AUC ratio (tissue/plasma) ([3]; IP 5 mg/kg, brain/plasma): 0.6
- AUCextrap ([3]; IP 5 mg/kg, liver): 0.1%
- AUC ratio (tissue/plasma) ([3]; IP 5 mg/kg, liver/plasma): 49
- AUCextrap ([3]; IP 5 mg/kg, plasma): 0.6%
- AUCextrap ([3]; IV 1 mg/kg, brain): 10%
- AUC ratio (tissue/plasma) ([3]; IV 1 mg/kg, brain/plasma): 0.8
- AUCextrap ([3]; IV 1 mg/kg, liver): 0.2%
- AUC ratio (tissue/plasma) ([3]; IV 1 mg/kg, liver/plasma): 40
- AUCextrap ([3]; IV 1 mg/kg, plasma): 2.4%
- AUCextrap ([3]; PO 5 mg/kg, brain): 24%
- AUC ratio (tissue/plasma) ([3]; PO 5 mg/kg, brain/plasma): 0.9
- AUCextrap ([3]; PO 5 mg/kg, liver): 0.1%
- AUC ratio (tissue/plasma) ([3]; PO 5 mg/kg, liver/plasma): 77
- AUCextrap ([3]; PO 5 mg/kg, plasma): 11%
- brain half-life (t1/2) after IP and PO administration ([3]; brain, IP and PO 5 mg/kg): 6.6 to 11 h
- bioavailability ([3]; male, C57BL/6, mouse, in vivo, ip, 5 mg/kg): 27%
- AUC(0-t) ([3]; male, C57BL/6, mouse, liver, iv, 1 mg/kg): 57100 ng·h/mL
- Cmax ([3]; read-out: peak concentration (Cmax) in brain, IP 5 mg/kg, brain): 259 nM
- Gαq dissociation potency reduction at GHSR1a^A204E vs WT (hGHSR1a^A204E [4]): > 20 fold
- iCa2+ EC50, fold more potent than own GHSR1a binding IC50 (hGHSR1a^WT): 41 fold
- iCa2+ potency, fold less potent than L585 (hGHSR1a^WT): 3.4 fold
- iCa2+ potency, fold less potent than MK-0677 (hGHSR1a^WT): 5.3 fold
- iCa2+ potency, fold more potent than ghrelin (hGHSR1a^WT): 8.9 fold
- increase in ghrelin's iCa2+ potency by N8279 (hGHSR1a^WT; N8279 10 μM, concomitant): ~3 fold
- modulation of ghrelin-induced iCa2+ in words (hGHSR1a^WT; concomitant N8279): weak ago-PAM activity
- iCa2+ efficacy in words (hGHSR1a^WT; relative to ghrelin): full agonist
